Experimental data as given in patent US20240270751A1, “Pyrazolopyridinone Compounds” (BeiGene Ltd., priority 2021, published 2024).

Tests used:
[1] = target: DGKα (Homo sapiens (Human), UniProt P23743); experiment: Biochemical DGK IC50 assay, DGKα ADP-Glo assay; settings: 7.5 nM enzyme, 140 μM ATP, 80 μM DAG
Method in brief: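 Compounds at final 1.55˜10000 nM or 23.3˜150000 nM were tested against full-length DGKα. Substrate was lipid micelles of DAG and PS resuspended in 25 mM HEPES pH 7.0 with 0.5 mM EDTA and 160 mM octyl β-D-glucopyranoside. ADP formed was detected by ADP-Glo.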

[2] = target: DGKζ (Homo sapiens (Human), UniProt Q13574); experiment: Biochemical DGK IC50 assay, DGKζ ADP-Glo assay; settings: 0.5 nM enzyme, 140 μM ATP, 80 μM DAG; read-out: DGKζ ADP-Glo assay IC50
Method in brief: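 ADP formation measured by ADP-Glo luminescence, with test compounds at final 1.55–10000 nM or 23.3–150000 nM. Enzyme: purified full-length human DGKζ from Sf9 insect cells; substrate: DAG/PS micelles in 25 mM HEPES pH 7.0, 0.5 mM EDTA, octyl glucoside.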

Chain of DGKζ (Q13574 other isoform, or with tags, fused parts or gaps): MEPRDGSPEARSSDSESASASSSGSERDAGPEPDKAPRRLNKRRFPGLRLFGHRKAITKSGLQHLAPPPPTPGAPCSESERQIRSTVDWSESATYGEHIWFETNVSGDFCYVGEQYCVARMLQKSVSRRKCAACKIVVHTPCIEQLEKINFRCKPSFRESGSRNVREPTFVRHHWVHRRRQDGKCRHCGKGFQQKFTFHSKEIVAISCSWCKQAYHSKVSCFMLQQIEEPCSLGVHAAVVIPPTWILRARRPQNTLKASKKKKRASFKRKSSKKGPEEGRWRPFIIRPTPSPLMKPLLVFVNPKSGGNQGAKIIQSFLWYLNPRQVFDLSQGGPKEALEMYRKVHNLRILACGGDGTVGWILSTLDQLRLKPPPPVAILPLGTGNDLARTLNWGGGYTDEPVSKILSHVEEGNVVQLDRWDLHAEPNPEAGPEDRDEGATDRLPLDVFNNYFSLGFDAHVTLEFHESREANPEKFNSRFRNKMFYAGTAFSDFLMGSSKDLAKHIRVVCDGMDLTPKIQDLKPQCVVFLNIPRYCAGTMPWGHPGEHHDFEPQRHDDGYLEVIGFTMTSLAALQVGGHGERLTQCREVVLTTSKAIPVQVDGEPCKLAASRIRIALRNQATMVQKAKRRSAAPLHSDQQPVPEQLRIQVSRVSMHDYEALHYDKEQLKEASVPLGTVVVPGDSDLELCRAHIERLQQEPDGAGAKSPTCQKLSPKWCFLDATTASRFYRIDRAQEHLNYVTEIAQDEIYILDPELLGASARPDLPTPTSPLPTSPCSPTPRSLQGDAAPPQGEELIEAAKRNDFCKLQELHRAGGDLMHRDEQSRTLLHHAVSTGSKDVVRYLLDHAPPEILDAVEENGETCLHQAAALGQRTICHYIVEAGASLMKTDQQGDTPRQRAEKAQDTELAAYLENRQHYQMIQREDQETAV
Chain of DGKα (P23743 whole entry): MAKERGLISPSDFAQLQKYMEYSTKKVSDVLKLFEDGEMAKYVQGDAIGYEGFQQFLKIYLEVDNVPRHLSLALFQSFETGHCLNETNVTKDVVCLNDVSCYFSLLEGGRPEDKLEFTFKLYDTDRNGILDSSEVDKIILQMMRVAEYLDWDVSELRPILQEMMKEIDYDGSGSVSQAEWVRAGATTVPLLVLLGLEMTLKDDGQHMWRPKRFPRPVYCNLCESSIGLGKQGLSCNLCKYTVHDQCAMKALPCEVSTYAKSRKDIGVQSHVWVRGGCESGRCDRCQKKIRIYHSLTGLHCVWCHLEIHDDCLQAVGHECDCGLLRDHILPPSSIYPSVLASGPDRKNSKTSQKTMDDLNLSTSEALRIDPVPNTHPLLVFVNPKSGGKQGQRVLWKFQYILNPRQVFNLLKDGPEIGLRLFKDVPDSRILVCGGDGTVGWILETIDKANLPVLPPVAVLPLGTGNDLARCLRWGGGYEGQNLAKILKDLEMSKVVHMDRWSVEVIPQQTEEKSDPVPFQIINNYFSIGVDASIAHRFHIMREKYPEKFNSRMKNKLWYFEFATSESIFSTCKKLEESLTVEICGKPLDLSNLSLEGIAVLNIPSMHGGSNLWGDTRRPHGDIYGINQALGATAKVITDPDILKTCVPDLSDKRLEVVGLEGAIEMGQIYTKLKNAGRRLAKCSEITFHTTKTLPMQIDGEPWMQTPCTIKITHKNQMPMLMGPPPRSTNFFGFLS

Row | Compound | IC50 [1] [µM] | IC50 [2] [µM]
1 | CC[C@H]1CN(C(C)c2ccn3ncnc3c2)[C@H](CC)CN1c1cc(=O)n(C)c2cn(CC#N)nc12 (some centres unmarked) [Compound A49] | 0.13 | 0.2
2 | [2H]C([2H])([2H])n1c(=O)cc(N2C[C@@H](CC)N(C(C)c3ccc4nccnc4c3)C[C@@H]2CC)c2nn(CC#N)cc21 (some centres unmarked) [Compound A51] | 0.347 | 0.0078
3 | CC[C@H]1CN(C(c2ccc(F)cc2)c2ccc(F)cc2OC)[C@H](CC)CN1c1cc(=O)n(C)c2cn(CC#N)nc12 (some centres unmarked) [Compound A53] | 1.2 | 0.0078
4 | CC[C@H]1CN(C(C)c2ccc3cccnc3n2)[C@H](CC)CN1c1cc(=O)n(C)c2cn(CC#N)nc12 (stereo partly drawn) [Compound A63, 2-(7-((2S,5R)-4-(1-(1,8-naphthyridin-2-yl)ethyl)-2,5-diethylpiperazin-1-yl)-4-methyl-5-oxo-4,5-dihydro-2H-pyrazolo[4,3-b]pyridin-2-yl)acetonitrile] | 0.083 | 0.043
5 | CC[C@H]1CN(C(C)c2cccc3c2OC(F)(F)O3)[C@H](CC)CN1c1cc(=O)n(C)c2cn(CC#N)nc12 (some centres unmarked) [Compound A66] | 9.84 | 0.409
6 | CC[C@@H]1CN(c2cc(=O)n(C)c3cn(CC#N)nc23)[C@@H](CC)CN1Cc1ccc(F)cc1 [Compound A70] | 0.038 | 0.64
7 | CC[C@H]1CN(C(C)c2ccc(C(F)(F)F)cc2F)[C@H](CC)CN1c1cc(=O)n(C)c2cn(CC#N)nc12 (stereo partly drawn) [Compound A73, 2-(7-((2S,5R)-2,5-diethyl-4-(1-(2-fluoro-4-(trifluoromethyl)phenyl)ethyl)piperazin-1-yl)-4-methyl-5-oxo-4,5-dihydro-2H-pyrazolo[4,3-b]pyridin-2-yl)acetonitrile] | 0.63 | 0.63
8 | CC[C@@H]1CN(c2cc(=O)n(C)c3cn(CC#N)nc23)[C@@H](CC)CN1Cc1ccc(OC(F)(F)F)cc1 [Compound A77] | 0.0092 | 0.6
9 | CC[C@H]1CN(C(C)c2ccc(C(F)(F)F)c(OC)c2)[C@H](CC)CN1c1cc(=O)n(C)c2cn(CC#N)nc12 (some centres unmarked) [Compound A78] | 2.41 | 0.64
10 | CC[C@H]1CN(C(C)c2ccc(F)cc2COC)[C@H](CC)CN1c1cc(=O)n(C)c2cn(CC#N)nc12 (stereo partly drawn) [Compound A79, 2-(7-((2S,5R)-2,5-diethyl-4-(1-(4-fluoro-2-(methoxymethyl)phenyl)ethyl)piperazin-1-yl)-4-methyl-5-oxo-4,5-dihydro-2H-pyrazolo[4,3-b]pyridin-2-yl)acetonitrile] | 2.48 | 0.115
11 | CC[C@H]1CN(C(C)c2ccc(OC(C)C)nc2)[C@H](CC)CN1c1cc(=O)n(C)c2cn(CC#N)nc12 (some centres unmarked) [Compound A81] | 0.461 | 0.06
12 | CC[C@H]1CN(C(C)c2ccc(F)cc2C)[C@H](CC)CN1c1cc(=O)n(C)c2cn(CC#N)nc12 (stereo partly drawn) [Compound A84, 2-(7-((2S,5R)-2,5-diethyl-4-(1-(4-fluoro-2-methylphenyl)ethyl)piperazin-1-yl)-4-methyl-5-oxo-4,5-dihydro-2H-pyrazolo[4,3-b]pyridin-2-yl)acetonitrile] | 2.89 | 0.128
13 | CC[C@H]1CN(C(C)c2ccc(F)cc2OCCOC)[C@H](CC)CN1c1cc(=O)n(C)c2cn(CC#N)nc12 (some centres unmarked) [Compound A85] | 5.28 | 1.18
14 | CC[C@H]1CN(C(C)c2c(F)cncc2F)[C@H](CC)CN1c1cc(=O)n(C)c2cn(CC#N)nc12 (some centres unmarked) [Compound A87] | 0.114 | 0.211
15 | CC[C@H]1CN(C(C)c2cnccn2)[C@H](CC)CN1c1cc(=O)n(C)c2cn(CC#N)nc12 (some centres unmarked) [Compound A88] | 0.118 | 9.44
16 | CC[C@H]1CN(C(C)c2ccncc2OC)[C@H](CC)CN1c1cc(=O)n(C)c2cn(CC#N)nc12 (some centres unmarked) [Compound A91] | > 10 | 0.533
17 | CC[C@H]1CN(C(C)c2ncccc2COC)[C@H](CC)CN1c1cc(=O)n(C)c2cn(CC#N)nc12 (some centres unmarked) [Compound A93] | > 10 | 3.66
18 | CC[C@H]1CN(C(C)c2c(OC)cc(F)cc2OC)[C@H](CC)CN1c1cc(=O)n(C)c2cn(CC#N)nc12 (some centres unmarked) [Compound A94] | 9.13 | 0.098
19 | CC[C@H]1CN(C(C)c2ccc3nccnc3c2)[C@H](CC)CN1c1cc(=O)n(CCO)c2cn(CC#N)nc12 (stereo partly drawn) [Compound A95, 2-(7-((2S,5R)-2,5-diethyl-4-(1-(quinoxalin-6-yl)ethyl)piperazin-1-yl)-4-(2-hydroxyethyl)-5-oxo-4,5-dihydro-2H-pyrazolo[4,3-b]pyridin-2-yl)acetonitrile] | 12.2 | 0.053
20 | CC[C@H]1CN(C(C)c2ccc3nccnc3c2)[C@H](CC)CN1c1cc(=O)n(CCOC)c2cn(CC#N)nc12 (stereo partly drawn) [Compound A96, 2-(7-((2S,5R)-2,5-diethyl-4-(1-(quinoxalin-6-yl)ethyl)piperazin-1-yl)-4-(2-methoxyethyl)-5-oxo-4,5-dihydro-2H-pyrazolo[4,3-b]pyridin-2-yl)acetonitrile] | > 10 | 0.255
21 | CC[C@H]1CN(C(C)c2ccc3nccnc3c2)[C@H](C)CN1c1cc(=O)n(C)c2cn(CC#N)nc12 (stereo partly drawn) [Compound A98, 2-(7-((2S,5R)-2-ethyl-5-methyl-4-(1-(quinoxalin-6-yl)ethyl)piperazin-1-yl)-4-methyl-5-oxo-4,5-dihydro-2H-pyrazolo[4,3-b]pyridin-2-yl)acetonitrile] | 27 | 0.41
22 | CC(c1ccc2nccnc2c1)N1C[C@H](C)N(c2cc(=O)n(C)c3cn(CC#N)nc23)C[C@H]1CO (stereo partly drawn) [Compound A99, 2-(7-((2S,5S)-5-(hydroxymethyl)-2-methyl-4-(1-(quinoxalin-6-yl)ethyl)piperazin-1-yl)-4-methyl-5-oxo-4,5-dihydro-2H-pyrazolo[4,3-b]pyridin-2-yl)acetonitrile] | > 10 | 2.79

Now from value to compound:

Row | IC50 [1] [µM] | IC50 [2] [µM] | Compound
23 | 0.79 | 0.72 | CC[C@H]1CN(C(C)c2ccc3ccccc3c2)[C@H](CC)CN1c1cc(=O)n(C)c2cn(CC#N)nc12 (some centres unmarked) [Compound A50]
24 | 0.031 | 0.072 | CC[C@H]1CN(C(C)c2nc3ccccc3s2)[C@H](CC)CN1c1cc(=O)n(C)c2cn(CC#N)nc12 (stereo partly drawn) [Compound A52, 2-(7-((2S,5R)-4-(1-(benzo[d]thiazol-2-yl)ethyl)-2,5-diethylpiperazin-1-yl)-4-methyl-5-oxo-4,5-dihydro-2H-pyrazolo[4,3-b]pyridin-2-yl)acetonitrile]
25 | 0.022 | 0.009 | CC[C@H]1CN(C(C)c2cnc3ccccc3n2)[C@H](CC)CN1c1cc(=O)n(C)c2cn(CC#N)nc12 (some centres unmarked) [Compound A55]
26 | 0.56 | 0.027 | CC[C@H]1CN(C(C)c2cnc3ccccc3c2)[C@H](CC)CN1c1cc(=O)n(C)c2cn(CC#N)nc12 (some centres unmarked) [Compound A56]
27 | 0.114 | 0.05 | CC[C@H]1CN(C(C)c2ccc3ccccc3n2)[C@H](CC)CN1c1cc(=O)n(C)c2cn(CC#N)nc12 (some centres unmarked) [Compound A57]
28 | 0.0073 | 0.0028 | CC[C@H]1CN(C(C)c2cc3ccccc3cn2)[C@H](CC)CN1c1cc(=O)n(C)c2cn(CC#N)nc12 (some centres unmarked) [Compound A58]
29 | 0.125 | 0.017 | CC[C@H]1CN(C(C)c2ccc3ncccc3c2)[C@H](CC)CN1c1cc(=O)n(C)c2cn(CC#N)nc12 (some centres unmarked) [Compound A60]
30 | 0.177 | 0.0086 | CC[C@H]1CN(C(C)c2ccc3cccnc3c2)[C@H](CC)CN1c1cc(=O)n(C)c2cn(CC#N)nc12 (some centres unmarked) [Compound A61]
31 | 0.04 | 0.048 | CC[C@H]1CN(C(C)c2ccc3ccncc3c2)[C@H](CC)CN1c1cc(=O)n(C)c2cn(CC#N)nc12 (stereo partly drawn) [Compound A62, 2-(7-((2S,5R)-2,5-diethyl-4-(1-(isoquinolin-7-yl)ethyl)piperazin-1-yl)-4-methyl-5-oxo-4,5-dihydro-2H-pyrazolo[4,3-b]pyridin-2-yl)acetonitrile]
32 | 2.8 | 0.23 | CC[C@H]1CN(C(C)c2ccc3ncn(C)c3c2)[C@H](CC)CN1c1cc(=O)n(C)c2cn(CC#N)nc12 (some centres unmarked) [Compound A64]
33 | 0.01 | 0.13 | CC[C@H]1CN(C(C)c2ccc(F)cc2)[C@H](CC)CN1c1cc(=O)n(C)c2cn(CC#N)nc12 (some centres unmarked) [Compound A67]
34 | 0.0038 | 0.83 | CC[C@H]1CN(C(C)c2ccc(F)cn2)[C@H](CC)CN1c1cc(=O)n(C)c2cn(CC#N)nc12 (some centres unmarked) [Compound A74]
35 | > 10 | 0.663 | CC[C@H]1CN(C(C)c2ccccc2OC(F)(F)F)[C@H](CC)CN1c1cc(=O)n(C)c2cn(CC#N)nc12 (some centres unmarked) [Compound A80]
36 | 1.02 | 0.09 | CC[C@H]1CN(C(C)c2ccc(F)c(OC)c2)[C@H](CC)CN1c1cc(=O)n(C)c2cn(CC#N)nc12 (some centres unmarked) [Compound A82]
37 | 0.081 | 0.17 | CC[C@H]1CN(C(C)c2c(F)cccc2F)[C@H](CC)CN1c1cc(=O)n(C)c2cn(CC#N)nc12 (some centres unmarked) [Compound A83]
38 | 0.022 | 1.94 | CC[C@H]1CN(C(C)c2ccncc2)[C@H](CC)CN1c1cc(=O)n(C)c2cn(CC#N)nc12 (some centres unmarked) [Compound A86]
39 | 0.0043 | 0.296 | CC[C@H]1CN(C(C)c2ccccc2)[C@H](CC)CN1c1cc(=O)n(C)c2cn(CC#N)nc12 (some centres unmarked) [Compound A89]
40 | 0.013 | 1.9 | CC[C@H]1CN(C(C)c2ccccn2)[C@H](CC)CN1c1cc(=O)n(C)c2cn(CC#N)nc12 (some centres unmarked) [Compound A90]
